Results: patent US20060062832A1, “Sanitizing wipes with microbicidal properties cross-reference to related applications” (priority 2004, published 2006)

Legend:
Assay type in all cases: cell-based
[1] = tested on: Pseudomonas aeruginosa ATCC 10145; assay: modified detergent and germicidal sanitizer test of the A.O.A.C.; settings: P.a. 10145
Procedure: (§1) The efficacy of the sanitizers of Examples I-III were further evaluated with 50 ppm of hypochlorite as a control against Salmonella typhimurium, Listeria monocytogenes, Aeromonas hydrophila, and Pseudomonas aeruginosa essentially by the modified detergent and germicidal sanitizer test of the A.O.A.C. The sanitizers were tested against both natural isolates and the antibiotic resistant strains of Listeria monocytogenes and Salmonella typhimurium. Each of the antibiotic resistant strains was used separately as well as in a composite strain prepared by mixing equal numbers of five different antibiotic resistant strains of Listeria monocytogenes or those of Salmonella typhimurium, respectively.

[2] = tested on: Aeromonas hydrophila ATCC 7965; assay: as above; settings: A.h. 7965
Procedure: as §1, with “[…],” for “efficacy of the sanitizers of Examples I-III were further evaluated with 50 ppm of hypochlorite as a control against Salmonella typhimurium,”

[3] = tested on: Listeria monocytogenes ATCC 7644; assay: as above; settings: L.m. 7644
Procedure: as §1, with “[…],” for “efficacy of the sanitizers of Examples I-III were further evaluated with 50 ppm of hypochlorite as a control against Salmonella typhimurium,”

[4] = tested on: Salmonella typhimurium ATCC 7823; assay: as above; parameters: key to Number of surviving bacteria/ml after 30 seconds: Too Numerous To Count; settings: S.t. 7823
Procedure: as §1

[5] = tested on: Staphylococcus aureus ATCC 6538; assay: A.O.A.C. sanitizer and germicidal detergent test; settings: compositions at listed % w/v; hypochlorite 50 ppm; sanitizer criterion 99.999% in 30 s
Text: (§2) The bacterial cultures were purchased from the American Type Culture Collection (ATCC), (Bethesda, Md.). Escherichia coli and Staphylococcus aureus are used to represent both gram negative and gram-positive bacterial classes. This test is used by the US EPA for to determine compliance for a product to be used as a sanitizing agent. A product that reduces population density of both types of bacteria in 30 s by 99.999% satisfies the requirement as a sanitizing agent.

[6] = tested on: Escherichia coli ATCC 11229; assay: A.O.A.C. sanitizer and germicidal detergent test; settings: compositions at listed % w/v; hypochlorite 50 ppm; sanitizer criterion 99.999% in 30 s
Text: as §2

[7] = 30 seconds contact, HOCL = 200 ppm (mark on the cfu cell beside)

## OCl [Hypochlorite]
[1]; 30 seconds contact
  % Kill after 30 seconds: >99.999%
[1]; 60 seconds contact
  % Kill after 60 seconds: >99.999%
[2]; [7]
  % Kill after 30 seconds: >99.999%
[2]; 60 seconds contact
  % Kill after 60 seconds: >99.999%
[3]; [7]
  % Kill after 30 seconds: >99.999%
[3]; 60 seconds contact
  % Kill after 60 seconds: >99.999%
[4]; 30 seconds contact, HOCL = 50 ppm
  Number of surviving bacteria/ml after 30 seconds: T@, T@
[4]; 30 seconds contact, HOCL = 50 ppm (mark on the cfu cell beside)
  % Kill after 30 seconds: <99.999%
[4]; 60 seconds contact
  % Kill after 60 seconds: >99.999%
[5]
  % Kill Staph. aureus: >99.999%
[6]
  % Kill E. coli: >99.999%
